# Values joined by “and” are separate entries in the source; they are usually repeats but may differ in a detail not shown here. Equal values may be shown once.
# What was measured:
# [1] = system: L1210 leukemia; test: L1210 antitumor screening; type: in vivo, female CDF1 mice
# Description: (§1) All of the compounds of the Examples were tested against Sarcoma 180a in female CFW mice via single ip administration on Day 1. Two of the compounds were active in this system: cis -[Pt(NH3)2(4-iodoaniline)CI]N03 (maximum ILS = 81% at 20 mg/kg) and cis -[Pt(NH3)2(3-iodoaniline)Cl]NO3 (maximum ILS = 83% at 20 mg/kg). The remaining compounds were not active. cis -[Pt(NH3)2(4-iodoaniline)Cl]NO3 was also tested against L1210 leukemia in female CDF1 mice via single ip administration on Day 1.
# L1210 screening was conducted according to a published method. See Rose, et al, Cancer Treat. Repts ., 1982 , 66 , 135, which is incorporated herein by reference. Female CDF, mice (16-22g) were implanted with 1 x 10^6 tumor cells ip on day zero. Compounds were administered in 0.5 mL of water ip on day one. Groups of 6 mice were used for each dose. A control group of mice received only tumor and 0.5 mL of water. A positive control group received tumor and 8 mg/kg cisplatin in 0.5 mL of 0.15 M NaCI. The test was terminated after three times the mean survival time (MST) of the control group. Surviving mice were counted as dying on that day. Activity was determined based on the percent increase in MST of test mice over controls (%ILS). An ILS of > 25% represents activity. The tumor line was maintained through weekly transfer of 5 x 10^4 cells in DBA/2 mice.
# [2] = system: Sarcoma 180a; test: Sarcoma 180 ascites (S180a) antitumor screening; type: in vivo, female CFW mice; settings: for %ILS: single ip on day 1, in water; for %ILS / activity against Sarcoma 180a: ILS > 50% indicates activity; for Surv: survivors per group of 6 mice; for maximum ILS: Sarcoma 180a, at 20 mg/kg; for maximum ILS / activity against Sarcoma 180a: single ip administration on Day 1; for activity against Sarcoma 180a: result in words
# Description: as §1
# Female CFW mice (18-25g) were implanted with 2 x 10^6 cells ip on day zero. Compounds were administered in 0.5 mL of water ip on day one. Groups of 6 mice were used for each test dose as well as controls as defined above. The test was run for twice the MST of the control group, with survivors counted as dying on that day. An ILS of > 50% indicates activity. The tumor line was maintained through weekly transfer of 4 x 10^6 cells in CFW mice.
# [3] = S180a, dose 1.25 mg/kg ip day 1
smiles,measurement,setting,value
"[NH2][Pt]([NH2])([Cl])[Cl] [Positive Control, cisplatin, reference compound]",Positive Control SURV,"[1]; L1210, positive control group: 8 mg/kg cisplatin in 0.15 M NaCl ip day 1, survivors per 6 mice",5/6
same,Positive Control %ILS,"[1]; L1210, positive control group: 8 mg/kg cisplatin in 0.5 mL of 0.15 M NaCl ip day 1",190%
same,Positive Control SURV,"[2]; S180a, positive control group: 8 mg/kg cisplatin in 0.15 M NaCl ip day 1, survivors per 6 mice",4/6 and 5/6 and 6/6
same,Positive Control %ILS,"[2]; S180a, positive control group: 8 mg/kg cisplatin in 0.5 mL of 0.15 M NaCl ip day 1",92% and 95% and 98%
N.N.Nc1cccc(I)c1.O=[N+]([O-])[O-].[Cl-].[Pt+2] [cis-[Pt(NH3)2(3-iodoaniline)Cl]NO3],%ILS,"[2]; S180a, dose 1.25 mg/kg",-3%
same,%ILS,"[2]; S180a, dose 2.5 mg/kg",9%
same,%ILS,"[2]; S180a, dose 5 mg/kg",23%
same,%ILS,"[2]; S180a, dose 10 mg/kg",51%
same,%ILS,"[2]; S180a, dose 20 mg/kg",83%
same,%ILS,"[2]; S180a, dose 40 mg/kg",66%
same,Surv,[2]; [3],0/6
same,Surv,"[2]; S180a, dose 2.5 mg/kg ip day 1",0/6
same,Surv,"[2]; S180a, dose 5 mg/kg ip day 1",0/6
same,Surv,"[2]; S180a, dose 10 mg/kg ip day 1",1/6
same,Surv,"[2]; S180a, dose 20 mg/kg ip day 1",2/6
same,Surv,"[2]; S180a, dose 40 mg/kg ip day 1",4/6
same,maximum ILS,[2],83%
same,activity against Sarcoma 180a,[2],active
N.N.Nc1ccc(Br)cc1.O=[N+]([O-])[O-].[Cl][Pt+] [cis-[Pt(NH3)2(4-bromoaniline)Cl]NO3],%ILS,"[2]; S180a, dose 1.25 mg/kg",2%
same,%ILS,"[2]; S180a, dose 2.5 mg/kg",7%
same,%ILS,"[2]; S180a, dose 5 mg/kg",38%
same,%ILS,"[2]; S180a, dose 10 mg/kg",44%
same,%ILS,"[2]; S180a, dose 20 mg/kg",-14%
same,%ILS,"[2]; S180a, dose 40 mg/kg",-74%
same,Surv,[2]; [3],0/6
same,Surv,"[2]; S180a, dose 2.5 mg/kg ip day 1",0/6
same,Surv,"[2]; S180a, dose 5 mg/kg ip day 1",0/6
same,Surv,"[2]; S180a, dose 10 mg/kg ip day 1",1/6
same,Surv,"[2]; S180a, dose 20 mg/kg ip day 1",2/6
same,Surv,"[2]; S180a, dose 40 mg/kg ip day 1",0/6
N.N.Nc1ccc(Cl)cc1.O=[N+]([O-])[O-].[Cl][Pt+] [cis-[Pt(NH3)2(4-chloroaniline)Cl]NO3],%ILS,"[2]; S180a, dose 1.25 mg/kg",3%
same,%ILS,"[2]; S180a, dose 2.5 mg/kg",9%
same,%ILS,"[2]; S180a, dose 5 mg/kg",40%
same,%ILS,"[2]; S180a, dose 10 mg/kg",44%
same,%ILS,"[2]; S180a, dose 20 mg/kg",-51%
same,%ILS,"[2]; S180a, dose 40 mg/kg",-77%
same,Surv,[2]; [3],0/6
same,Surv,"[2]; S180a, dose 2.5 mg/kg ip day 1",0/6
same,Surv,"[2]; S180a, dose 5 mg/kg ip day 1",0/6
same,Surv,"[2]; S180a, dose 10 mg/kg ip day 1",0/6
same,Surv,"[2]; S180a, dose 20 mg/kg ip day 1",0/6
same,Surv,"[2]; S180a, dose 40 mg/kg ip day 1",0/6
"N.N.Nc1ccc(F)cc1.O=[N+]([O-])[O-].[Cl-].[Pt+2] [cis-[Pt(NH3)2(4-fluoroaniline)Cl]NO3, cis-[Pt(NH3)2(4-fluoraniline)Cl]NO3]",%ILS,"[2]; S180a, dose 1.25 mg/kg",6%
same,%ILS,"[2]; S180a, dose 2.5 mg/kg",14%
same,%ILS,"[2]; S180a, dose 5 mg/kg",27%
same,%ILS,"[2]; S180a, dose 10 mg/kg",45%
same,%ILS,"[2]; S180a, dose 20 mg/kg",-48%
same,%ILS,"[2]; S180a, dose 40 mg/kg",-77%
same,Surv,[2]; [3],0/6
same,Surv,"[2]; S180a, dose 2.5 mg/kg ip day 1",0/6
same,Surv,"[2]; S180a, dose 5 mg/kg ip day 1",0/6
same,Surv,"[2]; S180a, dose 10 mg/kg ip day 1",0/6
same,Surv,"[2]; S180a, dose 20 mg/kg ip day 1",1/6
same,Surv,"[2]; S180a, dose 40 mg/kg ip day 1",0/6
"N.N.Nc1ccc(I)cc1.O=[N+]([O-])[O-].[Cl-].[Pt+2] [cis-[Pt(NH3)2(4-iodoaniline)Cl]NO3, cis-(Pt(NH3)2(4-iodoaniline)Cl]NO3]",%ILS,"[1]; L1210, dose 1.25 mg/kg, single ip on day 1, ILS > 25% represents activity",14%
same,Surv,"[1]; L1210, survivors per group of 6 mice, dose 1.25 mg/kg ip day 1",0/6
same,maximum ILS,"[1]; L1210 leukemia, at 10 mg/kg, single ip administration on Day 1",37%
same,activity against L1210 leukemia,"[1]; result in words, single ip administration on Day 1, ILS > 25% represents activity",moderate level of activity
same,%ILS,"[2]; S180a, dose 0.63 mg/kg",12%
same,%ILS,"[2]; S180a, dose 1.25 mg/kg",-1%
same,%ILS,"[2]; S180a, dose 2.5 mg/kg",22%
same,%ILS,"[2]; S180a, dose 5 mg/kg",38%
same,%ILS,"[2]; S180a, dose 10 mg/kg",39%
same,%ILS,"[2]; S180a, dose 20 mg/kg",81%
same,Surv,"[2]; S180a, dose 0.63 mg/kg ip day 1",0/6
same,Surv,[2]; [3],0/6
same,Surv,"[2]; S180a, dose 2.5 mg/kg ip day 1",0/6
same,Surv,"[2]; S180a, dose 5 mg/kg ip day 1",0/6
same,Surv,"[2]; S180a, dose 10 mg/kg ip day 1",0/6
same,Surv,"[2]; S180a, dose 20 mg/kg ip day 1",2/6
same,maximum ILS,[2],81%
same,activity against Sarcoma 180a,[2],active
